Data set [1] relates to nigral dopamine cells. Briefly: Number of TH-positive cells in the substantia nigra pars compacta, MPTP after intraventricular antibody. Particulars: C57BL/6J mice given normal mouse IgG i.c.v., then MPTP 20 mg/kg i.p. 4 times every 2 hours; P<0.001; FIG. 4.
Text: (§1) Male C57BL/6J mouse (CLEA Japan) of 14 weeks old was fixed on a brain stereotaxic apparatus under anesthesia with pentobarbital (Dainippon Pharmaceutical) and the skull surface was exposed. After the skull was dried with a drier, the coordinates of bregma were located to determine the coordinates of the left lateral ventricle (AP: −0.2 mm, lateral: +1.0 mm, depth: +2.5 mm from bregma). After a burr hole was made with a dental drill on the skull across the bregma from the location of the left lateral ventricle, anchor screws (EICOM) were implanted to fix a dental cement (GC Corp., Unifast II). A hole was made with a dental drill (Urawa Corp., Model: UC100) for guide cannulation to vertically insert into the skull on the left lateral ventricle, and a guide cannula (EICOM) was eased down toward the ventricle. After leakage of cerebrospinal fluids was confirmed, the guide cannula was fixed on the coordinates determined. The dental cement was used for fixation and applied until the anchor screws were embedded. After it was confirmed that the cement was dried, the mouse was released from the stereotaxic apparatus. […]
(§2) The antibody solution was diluted in Centriprep (Millipore). Absorbance (280 nm) was measured to determine the antibody concentration, and the antibody was diluted in aseptic PBS (−) to 9.97 mg/mL. […]
Data set [2] relates to nigral dopamine cells. Briefly: Number of tyrosine hydroxylase positive (dopamine) cells in the substantia nigra after MPTP, PrRP knockout vs wild-type mice. It is filed as in vivo, mouse. Particulars: FIG. 1. The source says: It is known that MPTP (methyl-phenyl-tetrahydropyridine) causes degenerative loss of nigral dopamine cells to induce Parkinson's disease. Thus, the brains were excised from PrRP knockout mice and wild-type mice, to which MPTP or saline for control was given as in EXAMPLE 1, and then immersed and fixed in a 0.07M phosphate buffer (pH 7.4) containing 5% acrolein (Tokyo Chemical Industry). The brains were then immersed in 30% sucrose-containing phosphate buffered saline (PBS) for more than 2 days. The free-floating technique was used for immunohistochemistry. A frozen frontal section in 40 μm thickness of the brain was prepared using a cryomicrotome. Next, the section was soaked in and washed with PBS for water immersion, then treated with 0.5% sodium metaperiodate-containing PBS (20 minutes) to inactivate the endogenous peroxidase activity, and the aldehyde group was reduced by treatment with 1% sodium borohydride-containing PBS (20 minutes). In addition, non-specific reactions were blocked by treatment with 1% normal horse serum and 0.4% Triton X-100-containing BPS (TNBS) (an hour). […] The number of tyrosine hydroxylase positive cells, which are dopamine cells in the substantia nigra, was counted under an optical microscope.

A short description of data set [3]: Catecholamine level in the striatum after MPTP, PrRP knockout vs wild-type mice. The data set is classed as in vivo, mouse. To be noted: seven days after final administration, FIG. 3. On the procedure: MPTP or saline for control was administered to PrRP knockout mice and wild-type mice in a manner similar to EXAMPLE 1. Seven days after the final administration, the striatal sites were immediately excised from the brains, frozen in liquid nitrogen and then stored at −80° C. Catecholamines such as Dopamine (DA), DOPAK, HVA, etc. were measured as follows. First, the excised corpus striata were homogenized in 0.2M perchloric acid containing 100 ng/mL isoproterenol (Sigma), centrifuged at 15,000 g for 20 minutes at 0° C., and filtered through a 0.22 μm filter. The final solution, 10 μL, was separated under the conditions at flow rate of 0.5 mL/min in 83% 0.1 M acetic acid-citrate buffer (pH 3.5)/17% methanol solution containing 190 mg/L SDS and 5 mg/L EDTA-2Na through EICOMPAK SC-50DS column (3.0 mm×150 mm, EICOM), and determined by electrochemical detection.

Data set [4] deals with PrRP knockout mice and wild-type mice. Briefly: Survival of PrRP knockout and wild-type mice after MPTP administration. It is filed as in vivo, mouse. To be noted: MPTP i.p. every 2 hours 4 times at 20 μg/kg, five days after administration. As to the method:
MPTP (methyl-phenyl-tetrahydropyridine) known to produce animal models of Parkinson's disease was intraperitoneally administered to PrRP knockout mice and wild-type mice every 2 hours 4 times at the dose of […]. Five days after the administration, 11 out of 21 wild-type mice survived with a survival rate of 52%, whereas 10 out of 10 PrRP knockout mice survived, meaning that there was no dead animal and the survival rate was 100%.

Data set [5] can be described thus: Motor activity assessed with a rotarod after MPTP, PrRP knockout vs wild-type mice. It is filed as in vivo, mouse. To be noted: FIG. 2. On the procedure: In order to examine the relation of Parkinson's disease to PrRP, decrement of motor activities known as symptoms of Parkinson's disease induced by administration of MPTP was compared between PrRP knockout mice and wild-type mice. The motor activity of each mouse was assessed with a rotarod. […] Turning to the PrRP knockout mice, there was no difference between the group administered with MPTP and the group administered with saline for control, and the motor activity was normal (FIG. 2). These phenomena reveal that onset of Parkinson's disease induced by MPTP was suppressed in the PrRP knockout mice.
On the technique in general: In the rotarod test animals must keep their balance on a rotating rod.

The test system of data set [6] is striatal dopamine nerve fibers. Briefly: TH-positive fiber density in the striatum, MPTP after intraventricular antibody. To be noted: C57BL/6J mice given normal mouse IgG i.c.v., then MPTP 20 mg/kg i.p. 4 times every 2 hours; P<0.05; FIG. 5.
Text: as §1, §2

In the case of `CN1CC=C(c2ccccc2)CC1` [MPTP], in the data set on nigral dopamine cells [1], the “dopamine cells in the substantia nigra pars compacta, vs saline group” value is reported as “significant decrease”. The “decrease in number of tyrosine hydroxylase positive cells in the substantia nigra, MPTP group vs saline group” value was “about 10%” with nigral dopamine cells [2] (PrRP knockout mice, no significant change) and “about 60%” with nigral dopamine cells [2] (wild-type mice, significant). Moreover, the “striatal dopamine (DA), DOPAC and HVA levels after MPTP” value in data set [3] (PrRP knockout mice) is given as “the degree of the decrease was smaller”; in data set [3] (wild-type mice) it was “decreased markedly”. Besides, the survival rate was 100% in data set [4] (PrRP knockout mice, 10 out of 10 survived) and 52% in data set [4] (wild-type mice, 11 out of 21 survived). In addition, the “motor activity (rotarod), MPTP group vs saline group” value in data set [5] (PrRP knockout mice) was “no difference”; in data set [5] (wild-type mice), “markedly decreased”. The “striatal dopamine nerve fibers (image analysis), vs saline group” value in data set [6] is “significant decrease”.

The record behind these values is patent US20080254042A1, “Novel Use of Prrp and Receptor Thereof” (Takeda Pharmaceutical Company Limited, priority 2004, published 2008).
